Data as given in article PMC10819767, “An ADAM10 Exosite Inhibitor Is Efficacious in an In Vivo Collagen-Induced Arthritis Model” (Pharmaceuticals, 2024).

Experiments:
[1] = Body weight and clinical signs of distress during CIA study; format: in vivo; conditions: 10, 30, 50 mg/kg oral for 28 days
Description: Mice were weighed and observed every day, and notes were made on the signs of distress.

DNA polymerase β = target: DNA polymerase β; design: method as in PubChem AID 485314; conditions: ref PubChem AID 485314; cited from earlier work
[2] = test system: collagen-induced arthritis (CIA) model; assay: CIA mouse model: clinical arthritis score and paw swelling; format: in vivo, C57 BL/6 mice; conditions: for disease score: scale 0–4
Description: In vivo efficacy in the CIA mouse model. All animal studies were conducted in accordance with NSU IACUC guidelines. Study protocol #2021.04.DM5 was approved by NSU IACUC before the commencement of the studies. CID 3117694 and indomethacin were ground with a small amount of the dispersing agent (0.5% HPMC (3 cP)–0.5% Tween 80) using a mortar and a pestle and mixed repeatedly to form a smooth paste. The paste was moved to a graduated cylinder and filled up to the required volume with the dispersing agent to form a suspension, as described elsewhere. The test compound (10, 30, and 50 mg/kg) and indomethacin (2.5 mg/kg) were administered with a mouse gavage needle (gauge no: 18, BD, catalog number: 653902) through the oral route as a suspension with a 5 mL/kg dose volume (from day 0 to day 28). In this study, 6–8-week-old C57 BL/6 mice from Charles River (male and female) were used. Animals were randomly assigned to one of the following six groups: (1) normal (non-RA control), (2) RA control untreated, (3) RA control treated with 2.5 mg/kg/day indomethacin, and 3 test groups (CID 3117694 (10 mg/kg/day, 30 mg/kg/day, and 50 mg/kg/day)) to provide an estimate for the lead compound’s efficacy range. Each group had three males and three females assigned to the control for gender-based differences. Arthritis was induced in the right paws of the mice under anaesthesia. The left paw of the mice was used as a control. A total of 10 µL collagen from bovine (type II collagen) nasal septum emulsion (2 mg/mL) was injected into the right knee joint with a glass Hamilton syringe and 25 G needles for intraarticular (i.a.) injection, followed by a total of 100 µL Complete Freund’s adjuvant (CFA) emulsion was injected at the back of mice using a syringe with 25 G needles subcutaneously (s.c.). On day 14 after the first injection, the mice were injected, i.e., with 10 µL of collagen from the bovine nasal septum ([…]) and s.c. with a 100 µL CFA emulsion for a boost injection. Arthritis progression was monitored using a clinical arthritis scoring system (0–4), and paw swelling was measured with the help of a plethysmograph on days 0, 14, 21, and 28 after the induction of arthritis. […] After the administration of a primary dose of collagen from the bovine nasal septum, CFA scoring was assessed. Measurements were taken on days 0, 14, 21, and 28 after the induction of arthritis in induced paws (right paw) and non-arthritis paws (left paw). CID 3117694 (10 mg/kg/day, 30 mg/kg/day, and 50 mg/kg/day) and pharmacological control (indomethacin 2.5 mg/kg/day) treatment were given every day for 28 days beginning from day 1 via oral gavage in hydroxy-propyl-methyl cellulose (HPMC) suspension.

PBMCs and neutrophils = test system: PBMCs and neutrophils; design: method as in PMID 28442704; conditions: cited from earlier work
IL-6 = assay: RA serum marker ELISA, IL-6, CIA mice; format: in vivo, C57 BL/6 mice
Description: The sample size for therapeutic evaluation was calculated using power analysis based on experimental data from similar studies. In a two-sided test and setting the α value at 0.05 and desired power at 0.95, the sample size turned out to be 5 per group. We also expected deaths during the experiments; therefore, we used the formula Nt = N/1-q, where Nt is the number of mice initially used, N is the number required at the end of the study, and q is the proportion of attrition, which is generally 10%. Thus, at the end of the study period, we expected to have data from at least 6 mice per group, which is enough to attain statistical significance if it exists. Data were analyzed using a one-way ANOVA followed by Dunnett’s test compared with the vehicle control. At the end of the study, the mice were anesthetized and sacrificed using CO2 euthanasia. The hind paws of the mice were subjected to a histopathological examination, and the serum was analyzed for CRP, TNF-α, IL-6, and IL-10, as described in the below sections.
RA serum marker analysis. Blood was collected from the tail vein, and 100 µL was used for the assays. All assays were conducted using the manufacturer’s instructions for the respective assay kits. The following assay kits were purchased: Mouse TNF-α GENLISA™ ELISA (Krishgen BioSystems cat#KB2145, Mumbai, India), Mouse IL-10 GENLISA™ ELISA (Krishgen BioSystems cat#KB2072), Mouse hsC-Reactive Protein, hs-CRP GENLISA™ ELISA (Krishgen BioSystems cat#KLM0318), Mouse IL-6 GENLISA™ ELISA (Krishgen BioSystems cat#KB2068).

OPRM1 = test system: OPRM1; design: method as in PMID 34817776; conditions: cited from earlier work
ADAM17 = target: T1, ADAM17 (Homo sapiens, UniProt P78536); assay: ADAM17 enzyme assay with glycosylated substrate DM2; format: biochemical
T1 construct: purchased R & D Systems (Minneapolis, MN, USA)
Description: ADAM10 and ADAM17 assays. Both assays were performed as published previously by us. Briefly, both assays followed the same general protocol. In total, 5 μL of the 2× enzyme solution (20 nM) in an assay buffer (10 mM Hepes, 0.001% Brij-35, pH 7.5) were added to solid bottom black 384 plates (Nunc, ThermoFisher, Waltham, MA, USA, cat# 264705). Next, test compounds and pharmacological controls were added to the corresponding wells using a 384-pin tool device (V & P Scientific, San Diego, CA, USA). After 60 min of incubation at RT, the reactions were started via the addition of 5 μL of the 2× solutions of glycosylated substrate DM2 (20 μM). The reactions were incubated at RT for 2 h, after which the fluorescence was measured using a Biotek H1 multimode microplate imager (λexcitation = 360 nm, λemission = 460 nm). IC50 values were calculated by fitting normalized data to the sigmoidal log vs. the response equation utilizing a non-linear regression analysis from GraphPad Prizm 9.

cardiac ion channel hERG = test system: cardiac ion channel hERG; design: method as in PubChem AID 1511; conditions: ref PubChem AID 1511, cited from earlier work
OPRD1 = test system: OPRD1; design: method as in PMID 34817776; conditions: cited from earlier work

T1 sequence (P78536 215-824, species assumed): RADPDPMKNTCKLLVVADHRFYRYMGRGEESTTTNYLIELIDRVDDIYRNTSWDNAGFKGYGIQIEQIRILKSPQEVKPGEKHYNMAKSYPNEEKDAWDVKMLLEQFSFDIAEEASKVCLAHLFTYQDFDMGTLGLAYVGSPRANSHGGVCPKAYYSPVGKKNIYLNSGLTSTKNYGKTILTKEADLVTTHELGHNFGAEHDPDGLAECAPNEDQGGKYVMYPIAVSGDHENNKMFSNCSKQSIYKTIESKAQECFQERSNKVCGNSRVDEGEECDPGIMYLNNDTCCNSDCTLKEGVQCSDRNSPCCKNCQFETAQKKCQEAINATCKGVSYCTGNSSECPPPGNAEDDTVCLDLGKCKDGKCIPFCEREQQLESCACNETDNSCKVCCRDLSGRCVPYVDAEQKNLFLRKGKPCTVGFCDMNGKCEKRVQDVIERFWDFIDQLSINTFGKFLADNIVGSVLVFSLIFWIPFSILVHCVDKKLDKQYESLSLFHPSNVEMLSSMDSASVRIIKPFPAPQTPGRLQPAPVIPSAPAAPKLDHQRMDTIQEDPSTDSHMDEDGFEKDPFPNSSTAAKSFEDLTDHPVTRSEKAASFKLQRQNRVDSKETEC

SMILES: COc1cccc(C(=O)NNC(=O)C(=O)Nc2ccc(C)c(Cl)c2)c1 [CID 3117694]
- body weight vs vehicle control [1]: no significant differences in body weight
- clinical signs of distress [1]: no clinical signs of distress
- IC50 (DNA polymerase β): 79 µM
- paw swelling vs normal control (in words) ([2]; 50 mg/kg/day): decreased the swelling to the level of the normal control
- disease score ([2]; day 21, 10 mg/kg oral): 4
- disease score ([2]; day 21, 30 mg/kg oral): three
- disease score ([2]; day 21, 50 mg/kg oral): 2
- disease score ([2]; day 28, 10 mg/kg oral): 2
- disease score ([2]; day 28, 30 mg/kg oral): 2
- disease score ([2]; day 28, 50 mg/kg oral): 1
- recruitment of PBMCs and neutrophils (PBMCs and neutrophils): can inhibit
- IL-6 blood level vs healthy control (IL-6; CID 3117694 50 mg/kg/day, indomethacin 2.5 mg/kg): decreased the markers to the level of the healthy control
- concentration of IL-6 in the blood of arthritic mice (IL-6; all tested doses (10, 30, 50 mg/kg), vs vehicle control): lowers
- activity against OPRM1 (OPRM1): inactive
- IC50 (ADAM17): > 100 µM
- effect on hERG with pro-arrhythmic agents (in words) (cardiac ion channel hERG; no EC50 value reported): cardioprotective
- hERG inhibition (in words) (cardiac ion channel hERG): not an hERG inhibitor
- activity against OPRD1 (OPRD1): inactive
